Laboratory results from US20260207605A1, “KRAS G12D INHIBITORS AND USES THEREOF” (Abbisko Therapeutics Co., Ltd., priority 2022, published 2026).
Read-outs that look alike come from different tables or passages of the source.

Columns and labels:
KRAS^G12D/cRAF = KRAS^G12D/cRAF (Homo sapiens, UniProt P01116, G12D); assay: KRAS G12D/cRAF binding test (Alphalisa); settings: His-tagged KRAS G12D with GMPPNP, GST-tagged cRAF
Description: The compound was dissolved in 100% DMSO at a starting concentration of 5 mM and diluted in DMSO with a 3-fold serial dilution method for a total of 8 concentration points. 1 μL of the compound or DMSO at each concentration point was added into 99 μL of the experimental buffer to obtain 10× stock solution.
(§1) The ratio for each compound concentration was calculated from the signal of the DMSO control group contained in each assay plate and the Alphalisa signal in each compound well. The compound concentration required for inhibitory concentration at 50% (IC50) was determined using a four-parameter logarithmic dose-response equation by testing the concentration of the compound and the value of the ratio. The endpoint value (IC50) of the reference compound was assessed in each experiment as a quality control measure. If the endpoint value is within three times the expected value, the experiment may be considered acceptable.

HPAC = assay: Anti-proliferative 2D CTG assay, HPAC; assay type: cell-based; settings: Homo sapiens, 96 h, HPAC cells, 4 days incubation, read-out: HPAC cell IC50
Description: (§2) 1.1 Day 0 Cell Culture and Plating
(§3) Cells in a logarithmic growth phase were harvested and the cells were counted by using a […]. Cell viability was tested by using a trypan blue exclusion method to ensure that cell viability was above 90%. The cell concentration was adjusted to the desired final density, and 90 μL of cell suspension was added to a 96-well plate, then the cells were incubated overnight at 37° C., 5% CO2 and 95% humidity.
(§4) 10 μL PBS was added to each well of the TO plate containing cells. The CTG reagent was thawed and the plate was equilibrated to room temperature for 30 minutes. The CTG solution of 50 µL/well was added to each well. The cells were lysed by shaking on an orbital shaker for 5 minutes. The plate was left at room temperature for 20 minutes to stabilize the luminescence signal. The TO fluorescence signal value was read.
(§5) From the 10 mM stock solution, with a ratio of 1:5, 9-point serial dilutions were performed. The 10× medium containing the compound was transferred into corresponding wells of the 96 wells. The final maximum compound concentration was […] and the final DMSO concentration was 0.1%. The 96-well plate was placed in a 37° C. incubator and incubated for 4 days.
(§6) 50 μL/well of detection reagent (CTG) was added to the cells, and the signal was read in an Envision machine.
as §1, with “The percent inhibition (%) at” for “The ratio for”, “signal in” for “signal of”, “the HPE and ZPE” for “the DMSO”, “control wells and the fluorescence signal in the individual compound wells included” for “control group contained”, “assay plate. […]” for “assay plate and the Alphalisa signal in each compound well.”, “the inhibition percentage value.” for “the value of the ratio.”

LS513 = assay: Anti-proliferative 2D CTG assay, LS513; assay type: cell-based; settings: Homo sapiens, LS-513, 96 h, LS513 cells, 4 days incubation, read-out: LS513 cell IC50
Description: as §2, §3, §4, §5, §6
as §1, with “The percent inhibition (%) at” for “The ratio for”, “signal in” for “signal of”, “the HPE and ZPE” for “the DMSO”, “control wells and the fluorescence signal in the individual compound wells included” for “control group contained”, “assay plate. […]” for “assay plate and the Alphalisa signal in each compound well.”, “the inhibition percentage value.” for “the value of the ratio.”

[1] = Pharmacokinetic experiment in mice (single PO or IV administration); settings: male, ICR, mouse, plasma
Description: The purpose of this trial is to study the pharmacokinetic behavior of some compounds of the present invention, and the administration method is: single oral administration (PO) or intravenous administration (IV) to ICR mice.
ICR mice male N=9 original source: Shanghai Sippr-Bk Lab Animal Co., Ltd.
The compounds were weighed and dissolved in the corresponding solution (0.5% CMC+1% tween water solution or 10% PG+10% Solutol®+80% pH3 citrate buffer). The mixture was then shaken well and sonicated to prepare a 1 mg/mL stock solution. Nine mice were orally administered at a dose of 10 mg/kg or intravenously administered at a dose of 2 mg/kg after an overnight fast.
About 90 μL of blood was collected via the submandibular vein per time point, heparin sodium anticoagulant was added, the sample was placed on ice after collection, and plasma was centrifuged within 1 hour (centrifugation conditions: 8,000 rpm, 6 minutes, 2-8° C.). The blood collection timepoints were 0, 0.25, 0.5, 1, 2, 4, 6, 8 and 24 h. The samples were stored in a −20° C. refrigerator.
The plasma sample was 40 μL, 160 μL of ice-cold acetonitrile containing internal standard was added, vortexed for 3 minutes, and centrifuged at 11,000 rpm for 5 minutes. 100 μL of the supernatant was taken and added to 100 μL of water, 5 μL of the sample was taken and injected into LC/MS/MS for analysis.

AsPC-1 = assay: Anti-proliferative 2D CTG assay, AsPC-1; assay type: cell-based; settings: AsPC-1 cells, 4 days incubation, read-out: AsPC-1 cell IC50
Description: as §2, §3, §4, §5, §6
as §1, with “The percent inhibition (%) at” for “The ratio for”, “signal in” for “signal of”, “the HPE and ZPE” for “the DMSO”, “control wells and the fluorescence signal in the individual compound wells included” for “control group contained”, “assay plate. […]” for “assay plate and the Alphalisa signal in each compound well.”, “the inhibition percentage value.” for “the value of the ratio.”

AGS = assay: Anti-proliferative 2D CTG assay, AGS; assay type: cell-based; settings: AGS cells, 4 days incubation, read-out: AGS cell IC50
Description: as §2, §3, §4, §5, §6
as §1, with “The percent inhibition (%) at” for “The ratio for”, “signal in” for “signal of”, “the HPE and ZPE” for “the DMSO”, “control wells and the fluorescence signal in the individual compound wells included” for “control group contained”, “assay plate. […]” for “assay plate and the Alphalisa signal in each compound well.”, “the inhibition percentage value.” for “the value of the ratio.”

Sequence of KRAS^G12D/cRAF (P01116 1-188 isoform P01116-2 G12D): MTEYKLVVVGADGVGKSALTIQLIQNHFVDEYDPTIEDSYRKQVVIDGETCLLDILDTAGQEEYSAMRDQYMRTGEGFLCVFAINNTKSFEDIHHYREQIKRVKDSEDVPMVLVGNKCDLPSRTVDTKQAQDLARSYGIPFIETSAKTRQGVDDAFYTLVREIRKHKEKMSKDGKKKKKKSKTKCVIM

Row | SMILES | IC50 (KRAS^G12D/cRAF) [µM] | IC50 (HPAC) [µM] | IC50 (LS513) [µM] | AUC ([1]; iv, 2 mg/kg) [µg·h/mL] | Cmax ([1]; iv, 2 mg/kg) [µg/mL] | half-life ([1]; iv, 2 mg/kg) [h] | AUC ([1]; po, 10 mg/kg) [µg·h/mL] | Cmax ([1]; po, 10 mg/kg) [µg/mL] | bioavailability ([1]; po, 10 mg/kg) [%] | half-life ([1]; po, 10 mg/kg) [h] | IC50 (AsPC-1; Homo sapiens, ASPC1, 96 h) [µM] | IC50 (AGS; Homo sapiens, AGS, 96 h) [µM] | IC50 (AsPC-1) [µM] | IC50 (AGS) [µM]
1 | [2H]C([2H])([2H])C([2H])([2H])[C@@]12CC[C@@H](CN(c3nc(OC[C@@]45CCCN4C/C(=C\F)C5)nc4c(F)c(-c5ccc(F)c6sc(N)c(C#N)c56)c(Cl)cc34)C1)N2 (single isomer, unassigned) [Example 361] | 0.0071 | 0.038 | 0.04 | 0.221 | 0.179 | 13.7 | 0.37 | 0.164 | 33.5 | 9.6 |  |  |  | 
2 | [2H]C([2H])([2H])C([2H])([2H])[C@@]12CC[C@@H](CN(c3nc(OC[C@@]45CCCN4CC(=C(F)F)C5)nc4c(F)c(-c5cc(O)cc6ccc(F)c(C#C)c56)ncc34)C1)N2 [Example 47, 4-(2-(((S)-2-(difluoromethylene)tetrahydro-1H-pyrrolizin-7a (5H)-yl)methoxy)-4-((1R,5S)-1-(ethyl-d5)-3,8-diazabicyclo [3.2.1]octan-3-yl)-8-fluoropyrido [4,3-d]pyrimidin-7-yl)-5-ethynyl-6-fluoronaphthalen-2-ol] | 0.0146 | 0.0231 | 0.0239 |  |  |  |  |  |  |  | 0.0463 | 0.0048 |  | 
3 | C#Cc1c(F)ccc2cc(O)cc(-c3ncc4c(N5C[C@@H]6CC[C@](CC)(C5)N6)nc(OC[C@@]56CCCN5C/C(=C\F)C6)nc4c3F)c12 [Example 56, 4-(4-((1R,5S)-1-ethyl-3,8-diazabicyclo[3.2.1]octan-3-yl)-8-fluoro-2-(((S,Z)-2-(fluoromethylene)tetrahydro-1H-pyrrolizin-7a (5H)-yl)methoxy)pyrido[4,3-d]pyrimidin-7-yl)-5-ethynyl-6-fluoronaphthalen-2-ol] |  | 0.0025 | 0.0026 |  |  |  |  |  |  |  |  |  | 0.0091 | 0.0006
4 | [2H]C([2H])([2H])OC[C@@]12CC[C@@H](CN(c3nc(OC[C@@]45CCCN4C/C(=C\F)C5)nc4c(F)c(-c5cc(O)cc6ccc(F)c(C#C)c56)ncc34)C1)N2 [Example 62, 5-ethynyl-6-fluoro-4-(8-fluoro-2-(((S,Z)-2-(fluoromethylene)tetrahydro-1H-pyrrolizin-7a(5H)-yl)methoxy)-4-((1R,5S)-1-((methoxy-d3)methyl)-3,8-diazabicyclo[3.2.1]octan-3-yl)pyrido[4,3-d]pyrimidin-7-yl) naphthalen-2-ol] | 0.0051 | 0.0097 | 0.0049 | 0.849 | 0.764 | 4.9 | 0.619 | 0.224 | 14.6 | 5.7 |  |  | 0.0198 | 0.0015
5 | C#Cc1c(F)ccc2cc(O)cc(-c3ncc4c(N5C[C@@H]6CC[C@](C7CC7)(C5)N6)nc(OC[C@@]56CCCN5C/C(=C\F)C6)nc4c3F)c12 [Example 68, 4-(4-(1-cyclopropyl-3,8-diazabicyclo[3.2.1]octan-3-yl)-8-fluoro-2-(((S,Z)-2-(fluoromethylene)tetrahydro-1H-pyrrolizin-7a (5H)-yl)methoxy)pyrido[4,3-d]pyrimidin-7-yl)-5-ethynyl-6-fluoronaphthalen-2-ol] | 0.0401 | 0.0832 | 0.0598 | 0.813 | 0.887 | 6.3 | 1.07 | 0.3 | 26.4 | 5.6 | 0.19 | 0.0334 |  | 
6 | [2H]C([2H])([2H])C([2H])([2H])[C@@]12CC[C@@H](CN(c3nc(OC[C@@]45CCCN4C/C(=C\F)C5)nc4c(F)c(-c5cc(O)cc6ccc(F)c(C#C)c56)ncc34)C1)N2 [Example 71, 4-(4-((1R,5S)-1-(ethyl-d5)-3,8-diazabicyclo[3.2.1]octan-3-yl)-8-fluoro-2-(((S,Z)-2-(fluoromethylene)tetrahydro-1H-pyrrolizin-7a(5H)-yl)methoxy)pyrido[4,3-d]pyrimidin-7-yl)-5-ethynyl-6-fluoronaphthalen-2-ol] | 0.0056 | 0.0023 | 0.0041 | 0.497 | 0.638 | 6.6 | 1.02 | 0.461 | 41.1 | 4.9 | 0.0167 | 0.0014 |  | 
7 | C#Cc1c(F)ccc2cc(O)cc(-c3ncc4c(N5C[C@@H]6CC[C@](C7CCCC7)(C5)N6)nc(OC[C@@]56CCCN5C/C(=C\F)C6)nc4c3F)c12 [Example 75, 4-(4-((1S,5S)-1-cyclopentyl-3,8-diazabicyclo[3.2.1]octan-3-yl)-8-fluoro-2-(((S,Z)-2-(fluoromethylene)tetrahydro-1H-pyrrolizin-7a (5H)-yl)methoxy)pyrido[4,3-d]pyrimidin-7-yl)-5-ethynyl-6-fluoronaphthalen-2-ol] | 0.0345 | 0.0936 | 0.0561 |  |  |  |  |  |  |  |  | 0.0142 |  | 
8 | [2H]C([2H])([2H])C([2H])([2H])[C@@]12CC[C@@H](CN(c3nc(OC[C@@]45CCCN4C/C(=C\F)C5)nc4c(F)c(-c5cc(N)cc6ccc(F)c(C#C)c56)ncc34)C1)N2 [Example 137, 4-(4-((1R,5S)-1-(ethyl-d5)-3,8-diazabicyclo[3.2.1]octan-3-yl)-8-fluoro-2-(((S,Z)-2-(fluoromethylene)tetrahydro-1H-pyrrolizin-7a(5H)-yl)methoxy)pyrido [4,3-d]pyrimidin-7-yl)-5-ethynyl-6-fluoronaphthalen-2-amine] | 0.0095 | 0.0117 | 0.0144 | 0.775 | 0.467 | 5.9 | 1.88 | 0.298 | 48.6 | 2.9 | 0.0376 | 0.0094 |  | 
9 | [2H]C([2H])([2H])C([2H])([2H])[C@@]12CC[C@@H](CN(c3nc(OC[C@@]45CCCN4CC(=C)C5)nc4c(F)c(-c5cc(N)cc6ccc(F)c(C#C)c56)ncc34)C1)N2 [Example 357, 4-(4-((1R,5S)-1-(ethyl-d5)-3,8-diazabicyclo[3.2.1]octan-3-yl)-8-fluoro-2-(((S)-2-methylenetetrahydro-1H-pyrrolizin-7a(5H)-yl)methoxy)pyrido[4,3-d]pyrimidin-7-yl)-5-ethynyl-6-fluoronaphthalen-2-amine] |  | 0.0469 | 0.0574 |  |  |  |  |  |  |  |  | 0.023 |  | 
10 | [2H]C([2H])([2H])OC[C@@]12CC[C@@H](CN(c3nc(OC[C@@]45CCCN4C/C(=C\F)C5)nc4c(F)c(-c5cccc6sc(N)c(C#N)c56)c(Cl)cc34)C1)N2 [Example 363, 2-amino-4-(6-chloro-8-fluoro-2-(((S,Z)-2-(fluoromethylene)tetra-hydro-1H-pyrrolizin-7a(5H)-yl)methoxy)-4-((1R,5S)-1-((methoxy-d3)methyl)-3,8-diaza-bicyclo[3.2.1]octan-3-yl)quina-zolin-7-yl)benzo[b]thiophene-3-carbonitrile] | 0.0186 | 0.0663 | 0.0823 |  |  |  |  |  |  |  |  |  |  | 
11 | C#Cc1c(F)ccc2cc(O)cc(-c3ncc4c(N5CC6CCC(C5)N6)nc(OC[C@@]56CCCN5C[C@H](F)C6)nc4c3F)c12 [Positive Compound 1, reference compound] |  | 0.0103 | 0.0181 | 0.367 | 1.13 |  | 0.0402 | 0.0206 | 2.2 |  | 0.0349 | 0.0042 |  | 
12 | C#Cc1c(F)ccc2cc(O)cc(-c3ncc4c(N5C[C@@H]6CC[C@](CC)(C5)N6)nc(OC[C@@]56CCCN5C[C@H](F)C6)nc4c3F)c12 [Positive Compound 2, reference compound] |  | 0.033 | 0.0594 |  |  |  |  |  |  |  | 0.0833 | 0.0092 |  | 
